This passage reports IC50 and EC50 results from patent US10981932B2, “Macrocyclic indole derivatives” (Bayer Aktiengesellschaft, priority 2016, dated 2021).

The test system of experiment [1] is SUDHL5. Description: Induction of cytotoxicity (CellTiter-Glo, 5 h), SUDHL5. Particulars: Homo sapiens, SU-DHL-5, 5 h, read-out: Cytotox SUDHL5 [M] (median), SUDHL5 cells, cytotoxicity induction, CellTiter-Glo, 5 h incubation, median. Background: ATP-based viability assays read luminescence as a measure of living cells.
Experiment [2] has as its system OPM2. Description: Anti-proliferative effect (CellTiter-Glo, 72 h), OPM2. The format is cell-based. Particulars: Homo sapiens, OPM-2, 72 h, OPM2 cells, median, read-out: IC50 antiproliferation assay OPM2 [M] (median). The procedure, abridged: (§1)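 Cells plated and incubated with compounds for 72 h at 37 °C, with a parallel day 0 reference plate for time-zero signal. Viability read by CellTiter-Glo luminescence after 10 min, measured identically on the day 0 and 72 h plates.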

Experiment [3] concerns SUDHL5. In words: Anti-proliferative effect (CellTiter-Glo, 72 h), SUDHL5. Type of experiment: cell-based. Particulars: Homo sapiens, SU-DHL-5, 72 h, SUDHL5 cells, antiproliferation, 72 h incubation, median, read-out: Antiproli SUDHL5 [M] (median). The procedure, abridged:
as §1

Experiment [4] relates to A2780. Description: Anti-proliferative effect (CellTiter-Glo, 72 h), A2780. The format is cell-based. The settings on record: A2780 cells, median, read-out: IC50 antiproliferation assay A2780 [M] (median). The procedure, abridged:
as §1

Experiment [5] relates to SUDHL5. In words: Induction of caspase-3/7 activity (Caspase-Glo 3/7), SUDHL5. The format is cell-based. Particulars: Homo sapiens, SU-DHL-5, 3 h, caspase-3/7 induction, SUDHL5 cells, 3 h treatment; median. The procedure, abridged:
(§2)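 DLBCL lines SUDHL5 and SUDHL10 treated with compounds for 3 h at 37 °C; caspase-3/7 activity read by Caspase-Glo 3/7 luminescence. Medium-only background subtracted; EC50 fitted with bottom fixed at 1 and top fixed at the reference compound's maximal induction.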

For experiment [6], the system named is SUDHL10. In words: Induction of cytotoxicity (CellTiter-Glo, 5 h), SUDHL10. Particulars: Homo sapiens, SU-DHL10, 5 h, read-out: Cytotox SUDHL10 [M] (median), SUDHL10 cells, cytotoxicity induction, CellTiter-Glo, 5 h incubation, median.
The target in experiment [7] is MCL-1 (Homo sapiens, UniProt Q07820). Description: Protein-protein interaction assay MCL-1/Noxa BH3 peptide (MCL-1 assay), TR-FRET. Particulars: MBP-MCL-1 / Noxa BH3-derived peptide, median. The format is binding. The procedure, abridged: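 IC50 came from a 4-parameter fit of the normalized 665/620 nm TR-FRET ratio (anti-MBP Eu-cryptate/streptavidin-XL665). Compounds (0.1 nM–20 μM, duplicates) were preincubated 10 min at 22 °C with 1 nM MBP-MCL-1 in pH 7 Tris/NaCl/KF buffer, then read after 1 h at 22 °C plus overnight at 4 °C.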
Sequence of MCL-1 (Q07820 whole entry): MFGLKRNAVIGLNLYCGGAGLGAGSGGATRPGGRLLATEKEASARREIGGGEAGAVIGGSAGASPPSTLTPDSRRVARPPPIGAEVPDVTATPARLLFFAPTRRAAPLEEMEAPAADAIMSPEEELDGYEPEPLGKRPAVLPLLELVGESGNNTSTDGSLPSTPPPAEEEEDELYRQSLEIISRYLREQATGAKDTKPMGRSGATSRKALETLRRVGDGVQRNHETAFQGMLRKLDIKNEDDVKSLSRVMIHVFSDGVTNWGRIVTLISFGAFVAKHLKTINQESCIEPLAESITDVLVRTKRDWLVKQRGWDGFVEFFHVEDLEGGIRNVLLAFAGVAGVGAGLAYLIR

Experiment [8] has as its system SUDHL10. In words: Induction of caspase-3/7 activity (Caspase-Glo 3/7), SUDHL10. The format is cell-based. The settings on record: Homo sapiens, SU-DHL10, 3 h, caspase-3/7 induction, SUDHL10 cells, 3 h treatment; median. The procedure, abridged:
as §2

Experiment [9] concerns SUDHL10. Description: Anti-proliferative effect (CellTiter-Glo, 72 h), SUDHL10. The settings on record: Homo sapiens, SU-DHL10, 72 h, SUDHL10 cells, antiproliferation, 72 h incubation, median, read-out: Antiproli SUDHL10 [M] (median). Type of experiment: cell-based. The procedure, abridged:
as §1

Each structure is given as a SMILES string. Structures can show the parent of a compound that is named as a salt. Where two headings read alike, the source gives them in different places. Some results are limits rather than exact numbers.

A word on the EC50: it is the concentration giving half of the maximal effect. A higher EC50 goes with lower potency in that assay. As to `Cn1nc(COc2ccc(N3CCN(CCC(C)(C)O)CC3)cc2)c2c1COCCCCn1c(C(=O)O)c(CCCOc3cccc4ccccc34)c3cccc-2c31` (racemic) [Example 1-121, (rac)-3-({4-[4-(3-hydroxy-3-methylbutyl)piperazin-1-yl]phenoxy}methyl)-1-methyl-7-[3-(naphthalen-1-yloxy)propyl]-1,10,11,12,13,15-hexahydropyrazolo[4′,3′:9,10][1,6]oxazacycloundecino[8,7,6-hi]indole-8-carboxylic Acid Ammonium Salt], the IC50 in experiment [1] was 3.07e-06 M; in [2], 8.33e-06 M; in experiment [3] it was 5.79e-06 M; in experiment [4] (Homo sapiens, A2780, 72 h), 9.61e-06 M; in experiment [6] it was 6.21e-06 M; in experiment [7], 4.36 nM. Moreover, the IC50 in experiment [9] was determined as 5.07e-06 M. Also, the results for the EC50 in experiment [5] and in experiment [8] were 2.66 µM and 8.04 µM, respectively.

For `Cc1cc(OCCCc2c(C(=O)O)n3c4c(cccc24)-c2c(C)nn(C)c2COCCCC3)cc(C)c1Cl` (racemic) [Example 009, (rac)-7-[3-(4-chloro-3,5-dimethylphenoxy)propyl]-1,3-dimethyl-1,10,11,12,13,15-hexahydropyrazolo[4′,3′:9,10][1,6]oxazacycloundecino[8,7,6-hi]indole-8-carboxylic Acid], the IC50 in experiment [1] was 1.11e-05 M; in [2] it was 2.1e-05 M; in experiment [3], 3.62e-06 M; in [4] (Homo sapiens, A2780, 72 h), 2.25e-05 M; in experiment [6] it was 2.04e-05 M; in [7], 6.32 nM. In [9], the IC50 was 8.05e-06 M. The figures for the EC50 in [5] and in experiment [8] were 9.89 µM and 17.8 µM, respectively.

For `Cc1nn(C)c2c1-c1cccc3c(CCCOc4cccc5cc(F)ccc45)c(C(=O)O)n(c13)CCCCOC2` (racemic) [Example 018, (rac)-7-{3-[(6-fluoronaphthalen-1-yl)oxy]propyl}-1,3-dimethyl-1,10,11,12,13,15-hexahydropyrazolo[4′,3′:9,10][1,6]oxazacycloundecino[8,7,6-hi]indole-8-carboxylic Acid], the IC50 is 3.77e-06 M in [1]; 9.67e-06 M in experiment [2]; 2.32e-06 M in experiment [3]; over 3.3e-05 M in experiment [4] (Homo sapiens, A2780, 72 h); 9.04e-06 M in experiment [6]; 4.53 nM in experiment [7]. Besides, in experiment [9], the IC50 worked out at 7.88e-06 M. In addition, the 50% effective concentration (EC50) came out at 4.43 µM in experiment [5] and 9.64 µM in [8].

Take `Cc1nn(C)c2c1-c1cccc3c(CCCOc4ccc(F)c5ccccc45)c(C(=O)O)n(c13)CCCCOC2` (racemic) [Example 021, (rac)-7-{3-[(4-fluoronaphthalen-1-yl)oxy]propyl}-1,3-dimethyl-1,10,11,12,13,15-hexahydropyrazolo[4′,3′:9,10][1,6]oxazacycloundecino[8,7,6-hi]indole-8-carboxylic Acid]: the IC50 is 1.82e-05 M in experiment [1]; over 3.3e-05 M in experiment [2]; 2.4e-05 M in [3]; 2.52e-05 M in experiment [4]; over 3.3e-05 M in experiment [4] (Homo sapiens, A2780, 72 h); over 3.3e-05 M in experiment [6]. The IC50 turned out to be 11 nM in experiment [7] and 5.25e-06 M in experiment [9]. The values for the EC50 in experiment [5] and in experiment [8] were 13.4 µM and over 33 µM, respectively.

With `COCCn1nc2c(c1C)-c1cccc3c(CCCOc4cccc5ccccc45)c(C(=O)O)n(c13)CCCN(C)C2` (racemic) [Example 052, (rac)-10-(2-methoxyethyl)-7,11-dimethyl-1-[3-(naphthalen-1-yloxy)propyl]-4,5,6,7,8,10-hexahydropyrazolo[3′,4′:7,8][1,5]diazecino[9,10,1-hi]indole-2-carboxylic Acid], the IC50 in experiment [1] was 2.68e-05 M; in experiment [2] it was 3.07e-05 M; in experiment [3], 2.15e-06 M; in experiment [4] (Homo sapiens, A2780, 72 h), 7.41e-06 M; in experiment [6] it was 2.97e-05 M; in [7], 28 nM. In addition, the IC50 in experiment [9] is 1.3e-05 M. The EC50 in experiment [5] was 29.9 µM; in experiment [8], over 33 µM.

Consider `Cc1c2c(nn1CCN1CCOCC1)COCCCCn1c(C(=O)O)c(CCCOc3cccc4ccccc34)c3cccc-2c31` (racemic) [Example 053, (rac)-3-methyl-2-[2-(morpholin-4-yl)ethyl]-7-[3-(naphthalen-1-yloxy)propyl]-2,10,11,12,13,15-hexahydropyrazolo[4′,3′:9,10][1,6]oxazacycloundecino[8,7,6-hi]indole-8-carboxylic Acid], for which the IC50 is 3e-06 M in experiment [1]; 1.11e-05 M in experiment [2]; 1.47e-06 M in experiment [3]; over 3.3e-05 M in experiment [4] (Homo sapiens, A2780, 72 h); 7.75e-06 M in experiment [6]; 3.41 nM in [7]. The IC50 in experiment [9] was 7.88e-06 M. Moreover, the EC50 in experiment [5] amounted to 2.51 µM; in [8], 5.67 µM.

For the compound `Cc1c2c(nn1CCN1CCOCC1)CN(C)CCCn1c(C(=O)O)c(CCCOc3cccc4ccccc34)c3cccc-2c31` (racemic) [Example 059, (rac)-7,11-dimethyl-10-[2-(morpholin-4-yl)ethyl]-1-[3-(naphthalen-1-yloxy)propyl]-4,5,67,8,10-hexahydropyrazolo[3′,4′:7,8][1,5]diazecino[9,10,1-hi]indole-2-carboxylic Acid], the IC50 in experiment [1] was determined as 2.54e-05 M; in experiment [2], 2.52e-05 M; in [3] it was 6.96e-06 M; in experiment [4] (Homo sapiens, A2780, 72 h) it was 2.91e-05 M; in [6] it was 1.9e-05 M; in experiment [7], 23.9 nM. Moreover, the IC50 in experiment [9] came out at 1.99e-05 M. In addition, the figures for the EC50 in [5] and in experiment [8] were 15.9 µM and 27.7 µM, respectively.

`Cc1c2c(nn1C)COC/C=C\Cn1c(C(=O)O)c(CCCOc3cccc4ccccc34)c3cccc-2c31` (racemic) [Example 062, (rac)-(11Z)-2,3-dimethyl-7-[3-(naphthalen-1-yloxy)propyl]-2,10,13,15-tetrahydropyrazolo[4′,3′:9,10][1,6]oxazacycloundecino[8,7,6-hi]indole-8-carboxylic Acid]: the IC50 in [1] came to 6.67e-06 M; in experiment [2], 1.67e-05 M; in experiment [3], 4.17e-06 M; in experiment [4] (Homo sapiens, A2780, 72 h) it was 2.26e-05 M; in [6], 2.43e-05 M; in experiment [7] it was 13.1 nM. Further, the IC50 in [9] is 4.49e-06 M. For the same compound, the concentration giving a half-maximal response (EC50) was 5.9 µM in [5] and 18.1 µM in experiment [8].

In the case of `Cc1c2c(nn1C)COCCCn1c(C(=O)O)c(CCCOc3cccc4ccccc34)c3cccc-2c31` (racemic) [Example 063, (rac)-10,11-dimethyl-1-[3-(naphthalen-1-yloxy)propyl]-5,6,8,10-tetrahydro-4H-pyrazolo[4′,3′:8,9][1,5]oxazecino[7,6,5-hi]indole-2-carboxylic Acid], the IC50 in experiment [1] came to 7.73e-06 M; in [2] it was 1.36e-05 M; in experiment [3], 3.98e-06 M; in [4] (Homo sapiens, A2780, 72 h), 2.02e-05 M; in experiment [6], 1.16e-05 M; in experiment [7] it was 10.6 nM. In experiment [9], the IC50 was 5.35e-06 M. For the same compound, the results for the EC50 in [5] and in experiment [8] were 7.71 µM and 16.5 µM, respectively.
